Results taken from patent US9050371B2 (Eli Lilly and Company, priority 2008, dated 2015).

Assays:
[1] = system: healthy volunteers; experiment: Euglycaemic glucose clamp (glucose infusion rate) after single SC dose in healthy volunteers; type: in vivo, human
Experimental: In all treatment periods, subjects undergo a euglycaemic clamp procedure for up to 24/36 hours following each insulin compound injection. Glucose infusion rates (GIR) are adjusted to maintain euglycaemia, with the documented GIR over time providing the GD measure of insulin action. The aim of the euglycaemic glucose clamp is to maintain euglycaemia through glucose infusion after the administration of a dose of an insulin compound. It is assumed that endogenous insulin secretion and hepatic glucose output are minimal and that any glucose that is translocated out of the glucose space (i.e., glucose metabolized) is the direct consequence of the administered exogenous insulin. The GIR in this case will be the glucodynamic (GD) measure of the insulin action over time. All glucose clamp studies are performed after an overnight fast of approximately 8 hours. On the morning of the study, a small catheter is placed into a vein of one arm, ideally in the ante-cubital fossa, for administration of 20% dextrose solution (buffered to near neutral pH) under the control of a volumetric pump. Another catheter is placed, ideally in the wrist or hand for venous glucose sampling. This area is heated with a warming device to approximately 55-60° C. for sampling arterialized venous blood. Blood samples are obtained at the bedside for immediate determination of whole blood glucose concentrations using an automated glucose oxidase technique. After basal blood sampling and a stabilization period of approximately 30 minutes, each subject receives a dose of insulin compound administered subcutaneously. The start of the subcutaneous injection of an insulin compound is defined as time zero. Following completion of dosing, in conjunction with frequent blood sampling for measurement of blood glucose, glucose is infused intravenously at a variable rate in order to maintain euglycaemia for up to 24 or 36 hours after insulin administration.
Blood sampling occurs approximately every 10 minutes for approximately 30 minutes prior to dosing and continued every 5-10 minutes for the first 2 hours after dosing (with the option to sample as frequently as every 2.5 minutes), and then reduced to 10-30 minute intervals up to the end of clamp.
During the glucose clamp, the glucose infusion rate is adjusted to maintain a pre-determined target blood glucose concentration for the individual subject. Preferably, the target concentration is close to the fasting blood glucose. The aim of the glucose clamp procedure is to maintain the blood glucose concentrations within +5% of the pre-dose target value, which is defined as 5 mg/dL below the mean fasting blood glucose. Thus, blood glucose concentrations are kept constant while the GIR varied. […]

[2] = calculated from published PK profiles; cited from earlier work

| Substance | GIR profile shape ([1]; Part C, 0.5 mg/kg) | time GD maintained ([1]; Part C, 0.5 mg/kg) | GIR compared with peak GIR response for glargine ([1]; Part C, 0.5 mg/kg, glargine 0.5 U/kg, data not shown) | duration of action compared with insulin glargine ([1]; humans, FIG. 2: LY 0.225 mg/kg, glargine 0.5 U/kg) | peak-trough (PT) ratio [2] |
| --- | --- | --- | --- | --- | --- |
| LY: 20 kDa PEGylated insulin lispro, about 95% or more at B28 and 5% or less at A1, prepared as in Example 9 | “peakless” | greater than 36 hours | exceeded the peak GIR response for glargine | longer than that of insulin glargine | – |
| glargine | – | – | – | – | 1.2-2.6 |
